Laboratory results reported in patent US9850219B1, “Phenothiazine derivatives and methods of use thereof” (Acenda Pharma, Inc., priority 2016, dated 2017).

How the values were obtained:
DLD1 = assay: Cytotoxicity, sulforhodamine B (SRB) assay, DLD1; format: cell-based, human; conditions: 48 h
Description: (§1) Human non-small cell lung cancer (NSCLC) cell lines (e.g., A549, H441GL and H1299), colon cancer cell lines (e.g., HCT116 and DLD1), breast cancer cell lines (e.g., MCF7 and MDA-MB-231), and pancreatic cancer cell lines (e.g., PANC-1 and SUIT-2) were used in cytotoxicity studies. These NSCLC cell lines have intrinsic resistance to epidermal growth factor receptor (EGFR) inhibitors, e.g., gefitinib. A549 and H441GL are EGFR-wild type adenocarcinoma cell lines. H1299 is an EGFR-wild type large cell carcinoma cell line. HCT116 and DLD1 are metastatic colon cell lines. MCF7 is a hormone-responsive breast cancer cell line. MDA-MB-231 is a triple-negative breast cancer cell line. PANC-1 is a metastatic adenocarcinoma cell line. SUIT-2 is a pancreatic ductal adenocarcinoma cell line.
(§2) All cell lines were grown and maintained in RPMI medium supplemented with 10% fetal bovine serum (FBS, Invitrogen), 2 mM L-glutamine, 100 U/mL penicillin, and 100 μg/mL streptomycin. For cell the culture experiment, stock solution (10 mM) of each test compound was dissolved in dimethyl sulfoxide (DMSO; Sigma).
(§3) Cells were plated in 96-well plates at a density of 2000 cells per well in triplicate. The cells in each well were treated on the third day (to ensure proper plating efficiency and vitality) with different concentrations (0-50 μM) of each test compound for 48 h.
(§4) Cell viability was assessed using the sulforhodamine B (SRB) assay. The medium was discarded, and the adherent cells were fixed by 100 μL of cold 10% trichloroacetic acid (w/v) in each well for 1 h at 4° C. After fixation, cells were stained with 100 μL/well of 0.4% (w/v, in 1% acetic acid) SRB solution for 30 min at room temperature, and then washed 5 times with 1% acetic acid. After air-drying, 100 μL of 10 mM Tris base was added to each well and the absorbance was read at 530 nm. Cytotoxicity is expressed as the percent of cells in drug treated wells relative to number of cells in the solvent only control (set to 100%). Each experiment was performed independently in triplicate and cytotoxicity IC50 value of each test compound was calculated from cytotoxicity data obtained at various concentrations.

MDA-MB-231 = assay: Cytotoxicity, sulforhodamine B (SRB) assay, MDA-MB-231; format: cell-based, human; conditions: MDA-MB-231, Breast, 48 h
Description: as §1, §2, §3, §4

SUIT-2 = assay: Cytotoxicity, sulforhodamine B (SRB) assay, SUIT-2; format: cell-based, human; conditions: SUIT-2, Pancreas, 48 h
Description: as §1, §2, §3, §4

MCF7 = assay: Cytotoxicity, sulforhodamine B (SRB) assay, MCF7; format: cell-based, human; conditions: MCF7, Breast, 48 h
Description: as §1, §2, §3, §4

H441GL = assay: Cytotoxicity, sulforhodamine B (SRB) assay, H441GL; format: cell-based, Human; conditions: 48 h, NA indicates no activity
Description: as §1, with “These NSCLC cell lines have intrinsic resistance to epidermal growth factor receptor (EGFR) inhibitors, e.g., gefitinib.” left out
as §2, §3, §4

PANC-1 = assay: Cytotoxicity, sulforhodamine B (SRB) assay, PANC-1; format: cell-based, human; conditions: PANC-1, Pancreas, 48 h, NA = no activity
Description: as §1, §2, §3, §4

HCT116 = assay: Cytotoxicity, sulforhodamine B (SRB) assay, HCT116; format: cell-based, human; conditions: 48 h
Description: as §1, §2, §3, §4

A549 = assay: Cytotoxicity, sulforhodamine B (SRB) assay, A549; format: cell-based, Human; conditions: A549, 48 h, NA indicates no activity
Description: as §1, with “These NSCLC cell lines have intrinsic resistance to epidermal growth factor receptor (EGFR) inhibitors, e.g., gefitinib.” left out
as §2, §3, §4

lung cancer cells = assay: Cytotoxicity SRB assay, summary of Table 2; format: cell-based, Human; conditions: summary in words of Table 2
Description: as §1, §3, §4
NA indicates no activity.

H441GL cells [1] = assay: Study 2: tumor size in mouse lung cancer model; format: in vivo, NOD/SCID mice; conditions: for Tumor Size [Fold Change from Week 3 (Mean ± SD, n = 4)] Week 3 / Tumor Size [Fold Change from Week 3 (Mean ± SD, n = 4)] Week 9 / Tumor Size [Fold Change from Week 3 (Mean ± SD, n = 4)] Week 13: Study 2, 0.0127 mmol/kg daily, i.p.; for Tumor Size [Fold Change from Week 3 (Mean ± SD, n = 4)] Week 3: Week 3 (baseline, start of treatment)
Experimental: (§5) H441GL cells (1×10^6 cells in 100 μL phosphate-buffered saline/injection) were subcutaneously injected into the right flank of NOD/SCID mice (female, 4-6 weeks old). Mice were allowed 2 weeks for tumor growth. On the first day of Week 3 post injection, tumor-bearing mice were randomly divided into control group (DMSO vehicle, intraperitoneal (i.p.) injection) and test compound treatment groups (5 mg/kg/day, 5 days/week, i.p. injection). Over the period of 10 weeks, tumorigenesis in both groups was measured using a caliper on a weekly basis. The change in tumor size was expressed as in fold change from Week 3. In this study body weight of each mouse was also recorded at the end of each study week.
In this study, the daily dose was 0.0127 mmol/kg instead of 5 mg/kg.

H441GL cells [2] = assay: Study 1: tumor size in mouse lung cancer model; format: in vivo, NOD/SCID mice; conditions: for Tumor Size [Fold Change from Week 3 (Mean ± SD, n = 4)] Week 3 / Tumor Size [Fold Change from Week 3 (Mean ± SD, n = 4)] Week 9 / Tumor Size [Fold Change from Week 3 (Mean ± SD, n = 4)] Week 13: Study 1, 5 mg/kg/day, 5 days/week, i.p.; for Tumor Size [Fold Change from Week 3 (Mean ± SD, n = 4)] Week 3: Week 3 (baseline, start of treatment)
Experimental: as §5

H1299 = assay: Cytotoxicity, sulforhodamine B (SRB) assay, H1299; format: cell-based; conditions: Homo sapiens, NCI-H1299, H1299, 48 h
Description: as §1, with “These NSCLC cell lines have intrinsic resistance to epidermal growth factor receptor (EGFR) inhibitors, e.g., gefitinib.” left out
as §2, §3, §4

[3] = Homo sapiens, DLD-1, DLD1, Colon
[4] = Homo sapiens, HCT-116, HCT116, Colon

Row | Compound | IC50 (DLD1; DLD1, Colon) | IC50 (MDA-MB-231) | IC50 (SUIT-2) | IC50 (MCF7) | IC50 (H441GL) | IC50 (PANC-1) | IC50 (HCT116; HCT116, Colon) | IC50 (A549) | inhibition of cell proliferation of lung cancer cells (lung cancer cells) | IC50 (H1299) | IC50 (MDA-MB-231; Homo sapiens) | IC50 (SUIT-2; Homo sapiens) | IC50 (MCF7; Homo sapiens) | IC50 (H441GL; Homo sapiens) | IC50 (PANC-1; Homo sapiens) | IC50 (A549; Homo sapiens) | further results
1 | COCCOCCOCCN1CCN(CCCN2c3ccccc3Sc3ccc(C(F)(F)F)cc32)CC1 [Compound 4-1b] | 8 µM | 14.7 µM | 13.3 µM | 13.1 µM | 10.5 µM | 20 µM | 6.5 µM | 26.3 µM | inhibit cell proliferation | – | – | – | – | – | – | – | –
2 | COCCOCCOCCOCCOCCOCCN1CCN(CCCN2c3ccccc3Sc3ccc(C(F)(F)F)cc32)CC1 [Compound 4-2b] | 13.9 µM | 15.8 µM | 15.6 µM | 13.2 µM | 6.8 µM | 10.5 µM | 6.5 µM | 21.3 µM | inhibit cell proliferation | – | – | – | – | – | – | – | effect on tumor growth as compared to the vehicle control (H441GL cells [1]; Study 2, 0.0127 mmol/kg daily i.p., by Week 13, in words): largest effect of suppressing tumor growth; Tumor Size [Fold Change from Week 3 (Mean ± SD, n = 4)] Week 3 (H441GL cells [1]): 1 ± 0 Fold Change; Tumor Size [Fold Change from Week 3 (Mean ± SD, n = 4)] Week 9 (H441GL cells [1]): 9.4 ± 2.6 Fold Change; Tumor Size [Fold Change from Week 3 (Mean ± SD, n = 4)] Week 13 (H441GL cells [1]): 23.3 ± 6.2 Fold Change
3 | COCCOCCOCCOCCOCCOCCOCCOCCOCCOCCOCCOCCN1CCN(CCCN2c3ccccc3Sc3ccc(C(F)(F)F)cc32)CC1 [Compound 4-3b] | 18 µM | 13.8 µM | 22 µM | 10.2 µM | 10.5 µM | 15.2 µM | 8.4 µM | 11.5 µM | inhibit cell proliferation | – | – | – | – | – | – | – | Tumor Size [Fold Change from Week 3 (Mean ± SD, n = 4)] Week 3 (H441GL cells [1]): 1 ± 0 Fold Change; Tumor Size [Fold Change from Week 3 (Mean ± SD, n = 4)] Week 9 (H441GL cells [1]): 11.7 ± 2.1 Fold Change; Tumor Size [Fold Change from Week 3 (Mean ± SD, n = 4)] Week 13 (H441GL cells [1]): 30.2 ± 6.2 Fold Change
4 | COCCOCCOCCOC(=O)N1CCN(CCCN2c3ccccc3Sc3ccc(C(F)(F)F)cc32)CC1 [Compound 5-1b, NDT-CO—O—[CH2CH2O]3—CH3] | 35.9 µM | 21.6 µM | 21.4 µM | 13.6 µM | 3.2 µM | 18.2 µM | 10 µM | 3.8 µM | inhibit cell proliferation | – | – | – | – | – | – | – | Tumor Size [Fold Change from Week 3 (Mean ± SD, n = 4)] Week 3 (H441GL cells [2]): 1 ± 0 Fold Change; Tumor Size [Fold Change from Week 3 (Mean ± SD, n = 4)] Week 9 (H441GL cells [2]): 28.2 ± 7.4 Fold Change; Tumor Size [Fold Change from Week 3 (Mean ± SD, n = 4)] Week 13 (H441GL cells [2]): 69.8 ± 18.4 Fold Change
5 | COCCOCCOCCOCCOCCOCCOC(=O)N1CCN(CCCN2c3ccccc3Sc3ccc(C(F)(F)F)cc32)CC1 [Compound 5-2b, NDT-CO—O—[CH2CH2O]6—CH3] | 15.2 µM | 15.8 µM | 10.8 µM | 12 µM | 2.7 µM | 12.5 µM | 7.3 µM | 3.2 µM | inhibit cell proliferation | – | – | – | – | – | – | – | effect on tumor growth as compared to the vehicle control (H441GL cells [2]; Study 1, 5 mg/kg/day i.p., in words): largest effect of suppressing tumor growth; Tumor Size [Fold Change from Week 3 (Mean ± SD, n = 4)] Week 3 (H441GL cells [2]): 1 ± 0 Fold Change; Tumor Size [Fold Change from Week 3 (Mean ± SD, n = 4)] Week 9 (H441GL cells [2]): 23.4 ± 7.5 Fold Change; Tumor Size [Fold Change from Week 3 (Mean ± SD, n = 4)] Week 13 (H441GL cells [2]): 51.6 ± 17.6 Fold Change
6 | COCCOCCOCCOCCOCCOCCOCCOCCOCCOCCOCCOCCOC(=O)N1CCN(CCCN2c3ccccc3Sc3ccc(C(F)(F)F)cc32)CC1 [Compound 5-3b, NDT-CO—O—[CH2CH2O]12—CH3] | 18.2 µM | 9.2 µM | 10.8 µM | 8.3 µM | 1.6 µM | 3.6 µM | 7.9 µM | 2.7 µM | inhibit cell proliferation | – | – | – | – | – | – | – | Tumor Size [Fold Change from Week 3 (Mean ± SD, n = 4)] Week 3 (H441GL cells [2]): 1 ± 0 Fold Change; Tumor Size [Fold Change from Week 3 (Mean ± SD, n = 4)] Week 9 (H441GL cells [2]): 33.4 ± 8.2 Fold Change; Tumor Size [Fold Change from Week 3 (Mean ± SD, n = 4)] Week 13 (H441GL cells [2]): 79.4 ± 20.3 Fold Change
7 | COCC(COCC(COCC(CN1CCN(CCCN2c3ccccc3Sc3ccc(Cl)cc32)CC1)OC)OC)OC (stereo not drawn) [Compound 24a, NDP-[CH2CH(OCH3)CH2O]3—CH3] | – | – | – | – | – | – | – | – | inhibit cell proliferation | 14.2 µM | 17.6 µM | 16.1 µM | 14.5 µM | 19.1 µM | 12.4 µM | 11.7 µM | –
8 | COCC(COCC(COCC(CN1CCN(CCCN2c3ccccc3Sc3ccc(C(F)(F)F)cc32)CC1)OC)OC)OC (stereo not drawn) [Compound 24b, NDT-[CH2CH(OCH3)CH2O]3—CH3] | – | – | – | – | – | – | – | – | inhibit cell proliferation | 10.9 µM | 11.3 µM | 13.9 µM | 9.9 µM | 21 µM | 25.8 µM | 11.8 µM | IC50 (DLD1; [3]): 11.8 µM; IC50 (HCT116; [4]): 5.9 µM
9 | COCC(COCC(COCC(COCCOCCOCCN1CCN(CCCN2c3ccccc3Sc3ccc(Cl)cc32)CC1)OC)OC)OC (stereo not drawn) [Compound 25-1a, NDP-[CH2CH2O]n—[CH2CH(OCH3)CH2O]3—CH3] | – | – | – | – | – | – | – | – | inhibit cell proliferation | 13.1 µM | 12.7 µM | 13 µM | 14.6 µM | 13.3 µM | 16.4 µM | 12.7 µM | Tumor Size [Fold Change from Week 3 (Mean ± SD, n = 4)] Week 3 (H441GL cells [1]): 1 ± 0 Fold Change; Tumor Size [Fold Change from Week 3 (Mean ± SD, n = 4)] Week 9 (H441GL cells [1]): 12.3 ± 2.0 Fold Change; Tumor Size [Fold Change from Week 3 (Mean ± SD, n = 4)] Week 13 (H441GL cells [1]): 31.5 ± 5.4 Fold Change
10 | COCC(COCC(COCC(COCCOCCOCCOCCOCCOCCOCCOCCOCCN1CCN(CCCN2c3ccccc3Sc3ccc(Cl)cc32)CC1)OC)OC)OC (stereo not drawn) [Compound 25-2a, NDP-[CH2CH2O]n—[CH2CH(OCH3)CH2O]3—CH3] | – | – | – | – | – | – | – | – | inhibit cell proliferation | 16.8 µM | 16.8 µM | 25.6 µM | 13.3 µM | 17.5 µM | 35.4 µM | 16.7 µM | –
11 | COCCOCCOCCOCC(COCC(COCC(CN1CCN(CCCN2c3ccccc3Sc3ccc(C(F)(F)F)cc32)CC1)OC)OC)OC (stereo not drawn) [Compound 26-1b, NDT-[CH2CH(OCH3)CH2O]3—[CH2CH2O]n—CH3] | – | – | – | – | – | – | – | – | inhibit cell proliferation | 20.4 µM | 6.4 µM | 12.9 µM | 10.3 µM | 12.1 µM | – | 14.4 µM | IC50 (DLD1; [3]): 13.9 µM; IC50 (HCT116; [4]): 8.5 µM
